Source: patent publication EP3070175A1, “TEST FOR DETERMINING SUSCEPTIBILITY OR RESISTANCE TO POLYMYXINS IN ENTEROBACTERIACEAE” (Université de Fribourg, priority 2015, dated 2016)

Key:
Assay in all cases: Polymyxin test: colorimetric detection of growth (glucose metabolization, phenol red) in presence of colistin sulphate
Design in all cases: key: +, yellow; -, orange
P. mirabilis = type: cell-based, Proteus mirabilis; conditions: strain Pmir; colistin sulphate 3.75 mg/L final; visual colour change, up to 4 h at 37°C
Description: (§1) Each inoculum was prepared by mixing 1 öse (10 µl) of a fresh culture of the tested bacteria in 5 ml of sterile NaCl 0.85% (at a density of 3 Mac Farland, i.e. about 10^9 CFU/ml).
(§2) 250 ml of reactive medium was prepared by mixing the compounds hereafter: • a broth powder of a non selective growth medium for bacteria, the Cation-Adjusted Mueller-Hinton broth (MHB-CA) : 6.25 g • a colour indicator, the phenol red : 0.0125 g • sterile distilled water 225 ml • sterile D (+)-glucose (10 %) anhydrous (sterilization by filtration) : 25 ml
(§3) The pH of the final reactive medium was adjusted to 6.6 and 6.7 with HCl 1M.
(§4) Colistin or polymyxin B was added or not at the concentration of 5 mg/L in the reactive medium. Standard colistin sulphate and polymyxin B were from Sigma Aldrich (Saint-Louis, France). Those antibiotic molecule powders were kept at 4°C before their use, whereas polymyxin dilutions were kept at -20°C.
(§5) For each strain, two wells of a plastic sterile plate with 96 shaped wells were inoculated in parallel with and without polymyxin (colistin sulphate or polymyxin B) in order to compare their colour change.
Plastic sterile plates were from Sarstedt (Nümbrecht, Germany). The tray may be prepared as follows : • 1. […]
The results of the tests were recorded at 10 min (checking for no spontaneous colour change in the well) and then every hour for a maximum of 4 hours by visual inspection. […]

C. freundii = type: cell-based; conditions: colistin sulphate 3.75 mg/L final, visual colour change, up to 4 h at 37°C
Description: as §1, §2, §3, §4, §5
(§6) Plastic sterile plates were from Sarstedt (Nümbrecht, Germany). The tray may be prepared as follows : • 1. 150 µl of reactive medium colistin free (obtained in 1.) in the first line • 2. 150 µl of reactive medium with 5 mg/l of colistin sulphate in the second line (final concentration = 3.75 mg/l) • 3. 50 µl of NaCl alone in the first column (one well colistin-free and one well with colistin sulphate) (medium control) • 4. 50 µl of the bacterial suspension (obtained in 2.) for the control strains and for every strain in the other column (one well colistin-free and one well with colistin)
(§7) After mixing of the bacterial suspension to the reactive medium by pipetting up and down, the final concentration of bacteria was 2.5.10^8 CFU/ml in each well and the final selective concentration of colistin or polymyxin B in the well with polymyxin was 3.75 mg/L.
(§8) The results of the tests were recorded at 10 min (checking for no spontaneous colour change in the well) and then every hour for a maximum of 4 hours by visual inspection. No colour change of the well with colistin sulphate or polymyxin B indicated susceptibility to colistin sulphate or polymyxin B and negativity of those tests. On the contrary, a colour change (orange to yellow) indicates the positivity of the test meaning growth capability (related to glucose metabolism) in presence of colistin sulphate or polymyxin B, i.e. resistance to colistin sulphate or polymyxin B.
(§9) All experiments were repeated in triplicate.

E. aerogenes = type: cell-based; conditions: strain 6 FR; colistin sulphate 3.75 mg/L final; visual colour change, up to 4 h at 37°C
Description: as §1, §2, §3, §4, §5, §6, §7, §8, §9

E. cloacae = type: cell-based; conditions: colistin sulphate 3.75 mg/L final, visual colour change, up to 4 h at 37°C
Description: as §1, §2, §3, §4, §5, §6, §7, §8, §9

H. alvei = type: cell-based; conditions: strain ER; colistin sulphate 3.75 mg/L final; visual colour change, up to 4 h at 37°C
Description: as §1, §2, §3, §4, §5, §6, §7, §8, §9

K. oxytoca = type: cell-based; conditions: strain C24; colistin sulphate 3.75 mg/L final; visual colour change, up to 4 h at 37°C
Description: as §1, §2, §3, §4, §5, §6, §7, §8, §9

M. morganii = type: cell-based; conditions: strain Mmor; colistin sulphate 3.75 mg/L final; visual colour change, up to 4 h at 37°C
Description: as §1, §2, §3, §4, §5, §6, §7, §8, §9

P. stuartii = type: cell-based; conditions: strain Pstu; colistin sulphate 3.75 mg/L final; visual colour change, up to 4 h at 37°C
Description: as §1, §2, §3, §4, §5, §6, §7, §8, §9

K. pneumoniae = type: cell-based, Klebsiella pneumoniae; conditions: colistin sulphate 3.75 mg/L final, visual colour change, up to 4 h at 37°C
Description: as §1, §2, §3, §4, §5, §6, §7, §8, §9

E. coli = type: cell-based, Escherichia coli; conditions: colistin sulphate 3.75 mg/L final, visual colour change, up to 4 h at 37°C
Description: as §1, §2, §3, §4, §5, §6, §7, §8, §9

colistin sulphate
Results of the method of the invention (P. mirabilis): +
Results of the method of the invention (C. freundii; strain 8 FR): -
Results of the method of the invention (C. freundii; strain C136): -
Results of the method of the invention (E. aerogenes): -
Results of the method of the invention (E. cloacae; strain 7 FR): -
Results of the method of the invention (E. cloacae; strain C28): +
Results of the method of the invention (E. cloacae; strain C129): -
Results of the method of the invention (E. cloacae; strain C144): -
Results of the method of the invention (E. cloacae; strain HM): +
Results of the method of the invention (H. alvei): +
Results of the method of the invention (K. oxytoca): +
Results of the method of the invention (M. morganii): +
Results of the method of the invention (P. stuartii): +
Results of the method of the invention (K. pneumoniae; strain 1 FR): -
Results of the method of the invention (K. pneumoniae; strain 2 FR): -
Results of the method of the invention (K. pneumoniae; strain 4 FR): -
Results of the method of the invention (K. pneumoniae; strain 9 FR): -
Results of the method of the invention (K. pneumoniae; strain 11 FR): +
Results of the method of the invention (K. pneumoniae; strain 75b): +
Results of the method of the invention (K. pneumoniae; strain AF1b): +
Results of the method of the invention (K. pneumoniae; strain C23): +
Results of the method of the invention (K. pneumoniae; strain C25): +
Results of the method of the invention (K. pneumoniae; strain C26): +
Results of the method of the invention (K. pneumoniae; strain C27): +
Results of the method of the invention (K. pneumoniae; strain C112): -
Results of the method of the invention (K. pneumoniae; strain C115): -
Results of the method of the invention (K. pneumoniae; strain C130): -
Results of the method of the invention (K. pneumoniae; strain C132): -
Results of the method of the invention (K. pneumoniae; strain T1b): +
Results of the method of the invention (E. coli; strain 3 FR): -
Results of the method of the invention (E. coli; strain 5 FR): -
Results of the method of the invention (E. coli; strain 10 FR): -
Results of the method of the invention (E. coli; strain 27563): +
Results of the method of the invention (E. coli; strain 27837): +
Results of the method of the invention (E. coli; strain 27850): +
Results of the method of the invention (E. coli; strain 27852): +
Results of the method of the invention (E. coli; strain 30742): +
Results of the method of the invention (E. coli; strain ATCC 25922): -
Results of the method of the invention (E. coli; strain C140): -
Results of the method of the invention (E. coli; strain Top10): -
